This passage reports Km results from paper PMC4201327 (Organic letters, 2014).

The structures appear in SMILES notation.

The assay has as its target Egt1 (Neurospora crassa, UniProt Q7RX33). The assay can be described thus: oxygen consumption, NeoFox oxygen electrode. It counts as biochemical.

Sequence of Egt1 (Q7RX33 whole entry): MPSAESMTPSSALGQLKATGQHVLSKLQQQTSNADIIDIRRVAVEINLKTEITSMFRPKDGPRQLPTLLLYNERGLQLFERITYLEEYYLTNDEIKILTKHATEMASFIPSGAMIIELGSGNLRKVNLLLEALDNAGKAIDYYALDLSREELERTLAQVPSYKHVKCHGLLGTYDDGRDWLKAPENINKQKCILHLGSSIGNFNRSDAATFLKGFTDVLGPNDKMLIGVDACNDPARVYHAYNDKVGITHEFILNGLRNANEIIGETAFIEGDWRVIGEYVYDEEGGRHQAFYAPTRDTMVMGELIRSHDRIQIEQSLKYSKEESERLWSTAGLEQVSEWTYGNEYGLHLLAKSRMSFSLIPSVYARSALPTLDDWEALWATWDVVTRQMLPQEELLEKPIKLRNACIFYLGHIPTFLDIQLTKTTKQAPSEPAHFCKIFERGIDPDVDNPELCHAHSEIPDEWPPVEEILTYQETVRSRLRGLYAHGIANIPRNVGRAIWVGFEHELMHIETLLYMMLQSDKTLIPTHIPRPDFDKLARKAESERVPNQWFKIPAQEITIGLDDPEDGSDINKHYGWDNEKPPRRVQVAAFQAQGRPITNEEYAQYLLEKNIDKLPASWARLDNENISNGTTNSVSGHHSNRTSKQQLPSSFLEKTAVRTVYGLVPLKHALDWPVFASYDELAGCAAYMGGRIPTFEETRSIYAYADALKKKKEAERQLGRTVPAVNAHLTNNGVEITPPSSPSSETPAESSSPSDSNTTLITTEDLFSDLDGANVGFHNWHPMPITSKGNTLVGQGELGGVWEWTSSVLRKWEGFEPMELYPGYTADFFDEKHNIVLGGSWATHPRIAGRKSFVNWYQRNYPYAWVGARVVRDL

Broadly, the Km is the concentration of substrate that gives half-maximal velocity. In the case of `N[C@@H](CCC(=O)N[C@@H](CS)C(=O)O)C(=O)O` [γ-Glu-Cys], the Km came out at 7.68 ± 1.11 mM.
In the case of `C[N+](C)(C)[C@@H](Cc1cnc[nH]1)C(=O)[O-]` [compound 2, hercynine], the Km is 0.436 ± 0.03 mM.
